# Reference: ChEMBL document CHEMBL1938312, “Design and combinatorial synthesis of a novel kinase-focused library using click chemistry-based fragment assembly” (Bioorg Med Chem Lett, 2012)
# The source made the active and inactive calls. No cut-off for these calls is given here.
# Experiments:
# [1] = target: T1, Tyrosine-protein kinase receptor TYRO3 (Homo sapiens) (UniProt Q06418); experiment: Inhibition of TYRO3 at 10 uM by colorimetric analysis
# T1 sequence (whole entry): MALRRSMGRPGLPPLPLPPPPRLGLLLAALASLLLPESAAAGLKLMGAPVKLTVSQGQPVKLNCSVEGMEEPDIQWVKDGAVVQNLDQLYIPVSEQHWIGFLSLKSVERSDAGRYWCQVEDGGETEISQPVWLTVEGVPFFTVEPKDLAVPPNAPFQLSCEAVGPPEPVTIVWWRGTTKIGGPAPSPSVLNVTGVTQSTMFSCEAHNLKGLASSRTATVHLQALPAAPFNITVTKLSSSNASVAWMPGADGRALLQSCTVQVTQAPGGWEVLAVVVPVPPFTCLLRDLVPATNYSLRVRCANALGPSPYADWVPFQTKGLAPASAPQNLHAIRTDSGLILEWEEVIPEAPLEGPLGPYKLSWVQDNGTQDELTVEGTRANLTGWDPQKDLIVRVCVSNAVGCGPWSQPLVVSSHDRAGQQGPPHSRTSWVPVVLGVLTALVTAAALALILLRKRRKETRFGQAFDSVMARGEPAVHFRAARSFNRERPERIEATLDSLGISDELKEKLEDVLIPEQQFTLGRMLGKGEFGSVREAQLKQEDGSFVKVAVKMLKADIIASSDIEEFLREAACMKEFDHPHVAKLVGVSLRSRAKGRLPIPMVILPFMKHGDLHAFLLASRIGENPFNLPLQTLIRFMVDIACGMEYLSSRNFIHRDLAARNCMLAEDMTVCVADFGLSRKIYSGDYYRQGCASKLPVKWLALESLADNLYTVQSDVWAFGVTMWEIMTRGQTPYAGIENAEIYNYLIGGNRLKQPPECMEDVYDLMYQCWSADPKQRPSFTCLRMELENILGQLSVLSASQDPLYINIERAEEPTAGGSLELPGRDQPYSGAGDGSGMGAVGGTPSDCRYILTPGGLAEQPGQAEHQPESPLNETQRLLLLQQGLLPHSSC
# [2] = target: Platelet-derived growth factor receptor alpha (Homo sapiens) (UniProt P16234); experiment: Inhibition of PDGFRalpha at 10 uM by colorimetric analysis
# [3] = target: 5'-AMP-activated protein kinase catalytic subunit alpha-1 (Homo sapiens) (UniProt Q13131); experiment: Inhibition of AMPKalpha1 at 10 uM by colorimetric analysis
# [4] = target: Dual specificity tyrosine-phosphorylation-regulated kinase 1B (Homo sapiens) (UniProt Q9Y463); experiment: Inhibition of DYRK1B at 10 uM by colorimetric analysis
# [5] = target: Epidermal growth factor receptor (Homo sapiens) (UniProt P00533); experiment: Inhibition of EGFR at 10 uM by colorimetric analysis
# [6] = target: Serine/threonine-protein kinase pim-1 (Homo sapiens) (UniProt P11309); experiment: Inhibition of PIM1 at 10 uM by colorimetric analysis
# [7] = target: RAC-alpha serine/threonine-protein kinase (Homo sapiens) (UniProt P31749); experiment: Inhibition of AKT1 at 10 uM by colorimetric analysis
# [8] = target: Proto-oncogene tyrosine-protein kinase Src (Homo sapiens) (UniProt P12931); experiment: Inhibition of SRC at 10 uM by colorimetric analysis
# [9] = target: T2, Tyrosine-protein kinase ITK/TSK (Homo sapiens) (UniProt Q08881); experiment: Inhibition of ITK at 10 uM by colorimetric analysis
# T2 sequence (whole entry): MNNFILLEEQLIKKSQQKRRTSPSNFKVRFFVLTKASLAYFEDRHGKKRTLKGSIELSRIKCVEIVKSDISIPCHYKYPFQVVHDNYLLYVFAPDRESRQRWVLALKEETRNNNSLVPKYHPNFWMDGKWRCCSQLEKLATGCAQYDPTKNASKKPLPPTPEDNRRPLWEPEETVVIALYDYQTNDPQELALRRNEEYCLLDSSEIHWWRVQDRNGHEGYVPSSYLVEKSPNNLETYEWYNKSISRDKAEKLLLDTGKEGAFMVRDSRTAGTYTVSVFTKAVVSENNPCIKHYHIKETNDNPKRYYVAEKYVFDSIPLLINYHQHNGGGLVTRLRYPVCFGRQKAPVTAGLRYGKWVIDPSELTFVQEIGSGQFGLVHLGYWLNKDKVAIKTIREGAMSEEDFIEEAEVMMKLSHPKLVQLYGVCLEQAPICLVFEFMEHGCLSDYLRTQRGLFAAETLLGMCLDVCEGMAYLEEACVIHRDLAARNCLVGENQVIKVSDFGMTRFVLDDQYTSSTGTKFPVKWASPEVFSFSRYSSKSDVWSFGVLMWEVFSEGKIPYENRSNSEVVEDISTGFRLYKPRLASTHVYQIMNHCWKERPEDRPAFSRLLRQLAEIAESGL
# [10] = target: T3, Calcium/calmodulin-dependent protein kinase type IV (Homo sapiens) (UniProt Q16566); experiment: Inhibition of CaMK4 at 10 uM by colorimetric analysis
# T3 sequence (whole entry): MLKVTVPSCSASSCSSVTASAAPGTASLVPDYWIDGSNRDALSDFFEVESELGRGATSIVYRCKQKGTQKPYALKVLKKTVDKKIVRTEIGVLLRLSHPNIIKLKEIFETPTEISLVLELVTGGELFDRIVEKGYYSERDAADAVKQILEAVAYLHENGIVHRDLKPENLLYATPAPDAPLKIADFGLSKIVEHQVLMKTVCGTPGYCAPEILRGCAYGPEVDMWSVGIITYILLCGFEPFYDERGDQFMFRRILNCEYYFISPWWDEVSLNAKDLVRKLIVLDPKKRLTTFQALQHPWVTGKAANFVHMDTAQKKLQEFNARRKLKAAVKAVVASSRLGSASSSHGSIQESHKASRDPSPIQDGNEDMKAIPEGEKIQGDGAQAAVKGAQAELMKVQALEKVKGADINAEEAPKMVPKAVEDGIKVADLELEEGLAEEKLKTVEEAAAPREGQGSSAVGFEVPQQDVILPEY
# [11] = target: Tyrosine-protein kinase Lck (Homo sapiens) (UniProt P06239); experiment: Inhibition of LCK at 10 uM by colorimetric analysis
# [12] = target: Vascular endothelial growth factor receptor 2 (Homo sapiens) (UniProt P35968); experiment: Inhibition of KDR at 10 uM by colorimetric analysis
# [13] = target: Casein kinase I isoform epsilon (Homo sapiens) (UniProt P49674); experiment: Inhibition of CK1epsilon at 10 uM by colorimetric analysis
# Sequence of Casein kinase I isoform epsilon (Homo sapiens) (P49674 whole entry, looked up, canonical isoform): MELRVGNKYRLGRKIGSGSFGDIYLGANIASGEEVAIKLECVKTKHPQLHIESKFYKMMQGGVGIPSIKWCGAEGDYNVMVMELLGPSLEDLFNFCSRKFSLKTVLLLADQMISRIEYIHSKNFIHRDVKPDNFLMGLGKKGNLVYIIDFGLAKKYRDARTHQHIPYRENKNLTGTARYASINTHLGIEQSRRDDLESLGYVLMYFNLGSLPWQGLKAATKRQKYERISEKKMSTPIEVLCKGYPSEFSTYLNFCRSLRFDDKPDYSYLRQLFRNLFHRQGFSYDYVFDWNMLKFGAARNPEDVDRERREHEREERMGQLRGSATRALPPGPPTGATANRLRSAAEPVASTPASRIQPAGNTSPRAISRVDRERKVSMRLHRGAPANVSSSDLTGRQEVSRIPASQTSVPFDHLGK
# Sequence of Dual specificity tyrosine-phosphorylation-regulated kinase 1B (Homo sapiens) (Q9Y463 whole entry, looked up): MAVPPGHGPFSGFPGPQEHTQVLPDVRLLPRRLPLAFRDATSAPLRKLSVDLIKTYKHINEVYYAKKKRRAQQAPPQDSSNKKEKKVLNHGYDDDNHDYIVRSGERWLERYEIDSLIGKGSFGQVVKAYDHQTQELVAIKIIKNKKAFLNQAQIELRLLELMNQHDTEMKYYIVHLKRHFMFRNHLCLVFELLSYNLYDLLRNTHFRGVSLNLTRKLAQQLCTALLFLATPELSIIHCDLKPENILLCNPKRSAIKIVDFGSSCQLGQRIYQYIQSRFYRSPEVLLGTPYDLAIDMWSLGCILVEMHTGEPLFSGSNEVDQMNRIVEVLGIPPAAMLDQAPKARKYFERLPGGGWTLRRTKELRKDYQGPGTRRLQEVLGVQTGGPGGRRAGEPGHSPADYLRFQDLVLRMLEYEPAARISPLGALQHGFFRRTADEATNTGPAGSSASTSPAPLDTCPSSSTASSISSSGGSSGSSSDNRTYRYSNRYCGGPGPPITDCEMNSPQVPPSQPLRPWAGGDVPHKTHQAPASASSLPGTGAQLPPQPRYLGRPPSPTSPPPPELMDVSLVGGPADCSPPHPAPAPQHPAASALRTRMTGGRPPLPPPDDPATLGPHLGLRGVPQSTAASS
# Sequence of 5'-AMP-activated protein kinase catalytic subunit alpha-1 (Homo sapiens) (Q13131 whole entry, looked up): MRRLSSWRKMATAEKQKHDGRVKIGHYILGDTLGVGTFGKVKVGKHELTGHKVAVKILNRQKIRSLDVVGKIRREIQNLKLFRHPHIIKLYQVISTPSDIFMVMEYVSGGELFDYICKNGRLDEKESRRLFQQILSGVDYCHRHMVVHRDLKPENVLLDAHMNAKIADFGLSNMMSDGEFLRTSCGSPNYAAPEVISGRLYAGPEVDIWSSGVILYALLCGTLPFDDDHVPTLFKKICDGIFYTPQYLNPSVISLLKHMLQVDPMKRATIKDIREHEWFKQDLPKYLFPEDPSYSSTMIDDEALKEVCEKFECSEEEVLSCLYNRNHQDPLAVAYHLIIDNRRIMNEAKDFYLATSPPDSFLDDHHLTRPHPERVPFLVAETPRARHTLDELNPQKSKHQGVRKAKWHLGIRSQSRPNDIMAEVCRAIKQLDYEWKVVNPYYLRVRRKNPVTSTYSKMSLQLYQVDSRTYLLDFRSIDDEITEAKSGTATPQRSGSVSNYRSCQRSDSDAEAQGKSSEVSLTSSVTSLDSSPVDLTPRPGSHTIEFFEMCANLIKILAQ
# Sequence of Tyrosine-protein kinase Lck (Homo sapiens) (P06239 2-509 limits assumed): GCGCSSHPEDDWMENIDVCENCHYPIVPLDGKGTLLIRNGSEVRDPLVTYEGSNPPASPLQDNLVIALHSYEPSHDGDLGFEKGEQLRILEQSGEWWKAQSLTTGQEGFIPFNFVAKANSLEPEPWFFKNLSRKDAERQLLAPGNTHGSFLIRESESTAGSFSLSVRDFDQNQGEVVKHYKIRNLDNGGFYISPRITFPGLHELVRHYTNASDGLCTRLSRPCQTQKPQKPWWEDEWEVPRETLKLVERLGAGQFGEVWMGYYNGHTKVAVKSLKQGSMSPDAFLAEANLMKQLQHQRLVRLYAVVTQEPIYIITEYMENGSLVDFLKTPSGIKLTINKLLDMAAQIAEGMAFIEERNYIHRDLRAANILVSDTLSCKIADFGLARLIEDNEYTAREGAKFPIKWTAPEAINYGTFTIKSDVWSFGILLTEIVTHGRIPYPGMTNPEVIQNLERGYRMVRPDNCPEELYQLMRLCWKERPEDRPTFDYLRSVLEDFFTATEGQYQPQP
# Sequence of RAC-alpha serine/threonine-protein kinase (Homo sapiens) (P31749 whole entry): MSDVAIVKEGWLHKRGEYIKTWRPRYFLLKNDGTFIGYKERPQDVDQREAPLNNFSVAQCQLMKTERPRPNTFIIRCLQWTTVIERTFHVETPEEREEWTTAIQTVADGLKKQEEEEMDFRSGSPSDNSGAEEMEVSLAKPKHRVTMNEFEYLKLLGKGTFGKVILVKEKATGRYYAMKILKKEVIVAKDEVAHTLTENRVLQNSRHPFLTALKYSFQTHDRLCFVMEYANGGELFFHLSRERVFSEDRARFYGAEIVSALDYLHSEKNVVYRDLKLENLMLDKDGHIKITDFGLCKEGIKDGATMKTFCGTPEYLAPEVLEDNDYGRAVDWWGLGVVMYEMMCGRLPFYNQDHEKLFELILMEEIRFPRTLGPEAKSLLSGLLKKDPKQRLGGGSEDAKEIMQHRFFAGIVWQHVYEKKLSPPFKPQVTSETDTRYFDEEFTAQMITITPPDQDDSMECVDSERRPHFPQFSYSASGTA
# Sequence of Epidermal growth factor receptor (Homo sapiens) (P00533 whole entry): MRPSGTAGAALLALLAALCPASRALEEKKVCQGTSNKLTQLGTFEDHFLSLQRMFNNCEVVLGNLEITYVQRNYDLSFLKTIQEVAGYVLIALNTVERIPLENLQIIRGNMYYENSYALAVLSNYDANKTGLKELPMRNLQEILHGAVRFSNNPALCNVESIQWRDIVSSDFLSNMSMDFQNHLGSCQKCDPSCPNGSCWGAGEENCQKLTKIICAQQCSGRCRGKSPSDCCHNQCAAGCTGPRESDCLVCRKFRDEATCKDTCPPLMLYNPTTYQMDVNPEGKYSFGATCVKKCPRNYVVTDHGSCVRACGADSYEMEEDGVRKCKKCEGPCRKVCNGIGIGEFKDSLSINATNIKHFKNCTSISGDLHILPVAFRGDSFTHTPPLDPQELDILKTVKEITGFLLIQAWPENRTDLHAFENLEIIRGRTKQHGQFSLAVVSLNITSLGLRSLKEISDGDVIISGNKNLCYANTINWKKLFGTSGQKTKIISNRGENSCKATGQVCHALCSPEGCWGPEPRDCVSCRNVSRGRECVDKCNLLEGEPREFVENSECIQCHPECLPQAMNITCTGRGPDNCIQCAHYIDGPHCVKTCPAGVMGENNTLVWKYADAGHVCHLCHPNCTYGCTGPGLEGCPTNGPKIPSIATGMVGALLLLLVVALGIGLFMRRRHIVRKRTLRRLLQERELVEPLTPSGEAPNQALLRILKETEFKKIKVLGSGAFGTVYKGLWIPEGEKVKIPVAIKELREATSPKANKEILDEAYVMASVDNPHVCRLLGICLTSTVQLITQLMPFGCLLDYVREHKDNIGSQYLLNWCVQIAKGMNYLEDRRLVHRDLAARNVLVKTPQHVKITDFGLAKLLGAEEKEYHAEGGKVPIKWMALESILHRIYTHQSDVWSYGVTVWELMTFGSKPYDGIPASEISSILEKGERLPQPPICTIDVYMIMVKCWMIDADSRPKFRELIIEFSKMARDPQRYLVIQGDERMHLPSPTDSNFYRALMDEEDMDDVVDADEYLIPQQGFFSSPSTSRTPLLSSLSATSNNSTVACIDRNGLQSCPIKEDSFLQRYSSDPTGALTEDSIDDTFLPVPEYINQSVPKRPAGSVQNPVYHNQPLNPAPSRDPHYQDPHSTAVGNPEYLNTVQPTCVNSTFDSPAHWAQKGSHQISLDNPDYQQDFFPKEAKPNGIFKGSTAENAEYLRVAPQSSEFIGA
# Sequence of Serine/threonine-protein kinase pim-1 (Homo sapiens) (P11309 whole entry, looked up): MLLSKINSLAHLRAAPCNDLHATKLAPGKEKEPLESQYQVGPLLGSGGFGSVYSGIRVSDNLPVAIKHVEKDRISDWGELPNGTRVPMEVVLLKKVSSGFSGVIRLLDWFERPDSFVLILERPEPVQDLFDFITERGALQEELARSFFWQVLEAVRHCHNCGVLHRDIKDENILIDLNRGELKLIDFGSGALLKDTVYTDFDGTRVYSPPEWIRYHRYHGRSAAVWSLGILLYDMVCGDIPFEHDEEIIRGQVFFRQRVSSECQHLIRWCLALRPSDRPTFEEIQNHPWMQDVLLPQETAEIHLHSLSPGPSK
# Sequence of Proto-oncogene tyrosine-protein kinase Src (Homo sapiens) (P12931 2-536 limits assumed): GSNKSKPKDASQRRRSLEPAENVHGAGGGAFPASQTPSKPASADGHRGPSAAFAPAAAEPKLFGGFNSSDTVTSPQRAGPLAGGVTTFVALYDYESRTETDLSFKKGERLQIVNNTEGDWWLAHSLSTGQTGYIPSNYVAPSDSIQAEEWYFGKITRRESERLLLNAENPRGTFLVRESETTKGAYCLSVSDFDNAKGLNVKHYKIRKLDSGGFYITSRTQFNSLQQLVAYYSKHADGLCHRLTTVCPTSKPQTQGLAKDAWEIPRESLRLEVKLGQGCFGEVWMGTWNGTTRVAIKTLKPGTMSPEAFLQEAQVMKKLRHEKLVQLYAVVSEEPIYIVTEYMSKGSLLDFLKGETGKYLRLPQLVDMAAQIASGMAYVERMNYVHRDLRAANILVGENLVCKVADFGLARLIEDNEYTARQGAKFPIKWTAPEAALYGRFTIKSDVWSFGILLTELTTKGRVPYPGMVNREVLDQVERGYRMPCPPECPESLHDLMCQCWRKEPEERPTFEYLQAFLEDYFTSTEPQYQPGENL
Structure (SMILES),inhibition [1],inhibition [2],inhibition [3],inhibition [4],inhibition [5],inhibition [6],inhibition [7],inhibition [8],inhibition [9],inhibition [10],inhibition [11],inhibition [12],inhibition [13]
Clc1cccc(-n2nncc2-c2ccncc2)c1,inactive,inactive,Active,Active,inactive,Active,Active,inactive,inactive,Active,inactive,inactive,Active
Clc1cccc(-n2cc(-c3ccncc3)nn2)c1,inactive,inactive,Active,Active,inactive,Active,Active,inactive,inactive,Active,inactive,inactive,Active
Clc1ccc(-n2cc(-c3ccncc3)nn2)cc1,inactive,inactive,Active,Active,inactive,Active,Active,inactive,inactive,Active,inactive,inactive,Active
Clc1ccc(-n2nncc2-c2ccncc2)cc1,inactive,inactive,Active,Active,inactive,Active,Active,inactive,inactive,Active,inactive,inactive,Active
